Positions of bridges follow the written chain, without caps; N, C: chain ends. Non-standard residues stand in square brackets, D forms with d. Residues, ends and D or L forms follow the SMILES beside them. *: point of attachment. 2Nal = N[C@@H](Cc1ccc2ccccc2c1)C(=O)O; Propanoyl(3,3,3-F3) = O=C(CC(F)(F)F)*; AEF = NCCOc1ccc(C[C@H](N)C(=O)O)cc1; αMeF = C[C@](N)(Cc1ccccc1)C(=O)O; Pen = CC(C)(S)[C@H](N)C(=O)O; Thp = NC1(C(=O)O)CCOCC1; Pentanoyl = CCCCC(=O)*; Propionyl = CCC(=O)*
biological target: IL-23R (Homo sapiens, UniProt Q5VWK5); test: cell-based; settings: PBMC pSTAT3 IC50 (nM), PBMCs from healthy donors, IL-23 5 ng/mL, 30 minutes, phosphorylated STAT3
Procedure: Cryopreserved peripheral blood mononuclear cells (PBMCs) from healthy donors were thawed and washed twice in ImmunoCult-XF T cell expansion medium (XF-TCEM) supplemented with CTL anti-aggregate wash. […] The cells were stimulated with cytokine for 30 minutes at 37° C. in 5% CO2, transferred onto ice for 10 minutes, and lysed. Cell lysates were stored at −80° C. until phosphorylated STAT3 was measured using the phospho-STAT panel kit (Meso Scale Discovery, K15202D).
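Further: cryopreserved PBMCs stimulated at 37 °C in 5% CO2, then lysed, with phosphorylated STAT3 quantified in lysates using a phospho-STAT panel kit.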

Chain of IL-23R (Q5VWK5 24-629): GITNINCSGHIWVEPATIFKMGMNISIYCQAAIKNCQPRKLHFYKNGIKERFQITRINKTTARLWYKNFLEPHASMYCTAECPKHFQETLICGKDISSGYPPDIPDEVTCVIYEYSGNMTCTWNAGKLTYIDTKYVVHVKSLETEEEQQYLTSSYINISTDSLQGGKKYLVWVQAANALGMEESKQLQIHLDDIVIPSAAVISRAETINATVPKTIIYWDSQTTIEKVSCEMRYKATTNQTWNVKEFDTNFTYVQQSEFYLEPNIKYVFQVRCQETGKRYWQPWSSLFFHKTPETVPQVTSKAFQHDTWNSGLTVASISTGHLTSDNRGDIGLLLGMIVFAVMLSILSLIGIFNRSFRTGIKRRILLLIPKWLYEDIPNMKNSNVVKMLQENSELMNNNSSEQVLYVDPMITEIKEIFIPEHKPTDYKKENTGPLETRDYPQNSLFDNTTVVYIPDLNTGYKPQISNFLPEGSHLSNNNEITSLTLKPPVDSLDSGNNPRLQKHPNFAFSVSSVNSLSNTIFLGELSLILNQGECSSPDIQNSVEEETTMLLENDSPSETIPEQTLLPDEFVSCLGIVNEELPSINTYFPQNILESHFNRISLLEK

Going from CCC(=O)N[C@H](CCCNC(=N)N)C(=O)N[C@H]1CCSC[C@@H](C(=O)N[C@@H](Cc2ccc(OCCN)cc2)C(=O)N[C@@H](Cc2ccc3ccccc3c2)C(=O)NC2(C(=O)N[C@@H](CCC(=O)O)C(=O)N[C@@H](CC(N)=O)C(=O)NC3(C(N)=O)CCOCC3)CCOCC2)NC(=O)[C@H](CCC(N)=O)NC(=O)[C@H](Cc2c[nH]c3ccccc23)NC(=O)[C@H]([C@@H](C)O)NC(=O)[C@H](CCC(N)=O)NC1=O [Compound 2, [Propionic_acid]-[(D)Arg]-[Abu]-Q-T-W-Q-[Cys]-Phe[4-(2-aminoethoxy)]-[2-Nal]-[THP]-E-N-[THP]-NH2] to COc1ccc(C[C@H](NC(=O)[C@@H]2CSCC[C@H](NC(=O)[C@H](N)CCCNC(=N)N)C(=O)N[C@@H](CCC(N)=O)C(=O)N[C@@H]([C@@H](C)O)C(=O)N[C@@H](Cc3c[nH]c4ccccc34)C(=O)N[C@@H](CCC(N)=O)C(=O)N2)C(=O)N[C@@H](Cc2ccc3ccccc3c2)C(=O)NC2(C(=O)N[C@@H](CCC(=O)O)C(=O)N[C@@H](CC(N)=O)C(=O)NC3(C(N)=O)CCOCC3)CCOCC2)cc1 [Compound 22, [(D)Arg]-[Abu]-Q-T-W-Q-[Cys]-[Phe(4-OMe)]-[2-Nal]-[THP]-E-N-[THP]-NH2], the IC50 rises from 3.3 nM to 22 nM (6.7-fold).

Compared with CCC(=O)N[C@H](CCCNC(=N)N)C(=O)N[C@@H]1C(=O)N[C@@H](CCC(N)=O)C(=O)N[C@@H]([C@@H](C)O)C(=O)N[C@@H](Cc2c[nH]c3ccccc23)C(=O)N[C@@H](CCC(N)=O)C(=O)N[C@H](C(=O)N[C@@H](Cc2ccc(OCCN)cc2)C(=O)N[C@@H](Cc2ccc3ccccc3c2)C(=O)NC2(C(=O)N[C@@H](CCC(=O)O)C(=O)N[C@@H](CC(N)=O)C(=O)N[C@@](C)(Cc3ccccc3)C(N)=O)CCOCC2)C(C)(C)SSC1(C)C [Compound 3, [Propionic_acid]-[(D)Arg]-[Pen]-Q-T-W-Q-[Pen]-Phe[4-(2-aminoethoxy)]-[2-Nal]-[THP]-E-N-[a-MePhe]-NH2] (Propionyl-[dR][Pen]QTWQ[Pen][AEF][2Nal][Thp]EN[αMeF]-NH2; disulfide 2-7), CCC(=O)N[C@H](CCCNC(=N)N)C(=O)N[C@@H]1C(=O)N[C@@H](CCC(N)=O)C(=O)N[C@@H]([C@@H](C)O)C(=O)N[C@@H](Cc2c[nH]c3ccccc23)C(=O)N[C@@H](CCC(N)=O)C(=O)N[C@H](C(=O)N[C@@H](Cc2ccc(OCCN)cc2)C(=O)N[C@@H](Cc2ccc3ccccc3c2)C(=O)NC2(C(=O)N[C@@H](CCC(=O)O)C(=O)N[C@@H](CC(N)=O)C(=O)NC3(C(N)=O)CCOCC3)CCOCC2)C(C)(C)SSC1(C)C [Compound 10, [Propionic_acid]-[(D)Arg]-[Pen]-Q-T-W-Q-[Pen]-Phe[4-(2-aminoethoxy)]-[2-Nal]-[THP]-E-N-[THP]-NH2] (Propionyl-[dR][Pen]QTWQ[Pen][AEF][2Nal][Thp]EN[Thp]-NH2; disulfide 2-7) is 8.7-fold lower in IC50: 40 nM for the first, 4.6 nM for the second.

First: C[C@@H](O)[C@@H]1NC(=O)[C@H](CCC(N)=O)NC(=O)[C@@H](NC(=O)[C@@H](CCCNC(=N)N)NC(=O)CC(F)(F)F)C(C)(C)SSC(C)(C)[C@@H](C(=O)N[C@@H](Cc2ccc(OCCN)cc2)C(=O)N[C@@H](Cc2ccc3ccccc3c2)C(=O)NC2(C(=O)N[C@@H](CCC(=O)O)C(=O)N[C@@H](CC(N)=O)C(=O)NC3(C(N)=O)CCOCC3)CCOCC2)NC(=O)[C@H](CCC(N)=O)NC(=O)[C@H](Cc2c[nH]c3ccccc23)NC1=O [Compound 5, [3,3,3-Trifluoropropionic acid]-[(D)Arg]-[Pen]-Q-T-W-Q-[Pen]-Phe[4-(2-aminoethoxy)]-[2-Nal]-[THP]-E-N-[THP]-NH2] ({Propanoyl(3,3,3-F3)}-[dR][Pen]QTWQ[Pen][AEF][2Nal][Thp]EN[Thp]-NH2; disulfide 2-7)
Second: CCCCC(=O)N[C@H](CCCNC(=N)N)C(=O)N[C@@H]1C(=O)N[C@@H](CCC(N)=O)C(=O)N[C@@H]([C@@H](C)O)C(=O)N[C@@H](Cc2c[nH]c3ccccc23)C(=O)N[C@@H](CCC(N)=O)C(=O)N[C@H](C(=O)N[C@@H](Cc2ccc(OCCN)cc2)C(=O)N[C@@H](Cc2ccc3ccccc3c2)C(=O)NC2(C(=O)N[C@@H](CCC(=O)O)C(=O)N[C@@H](CC(N)=O)C(=O)NC3(C(N)=O)CCOCC3)CCOCC2)C(C)(C)SSC1(C)C [Compound 9, [Pentanoic acid]-[(D)Arg]-[Pen]-Q-T-W-Q-[Pen]-Phe[4-(2-aminoethoxy)]-[2-Nal]-[THP]-E-N-[THP]-NH2] (Pentanoyl-[dR][Pen]QTWQ[Pen][AEF][2Nal][Thp]EN[Thp]-NH2; disulfide 2-7)
The IC50 of the first is 6.2-fold lower: 4.7 nM for the first, 29 nM for the second.

First: CCC(=O)N[C@H](CCCNC(=N)N)C(=O)N[C@@H]1C(=O)N[C@@H](CCC(N)=O)C(=O)N[C@@H]([C@@H](C)O)C(=O)N[C@@H](Cc2c[nH]c3ccccc23)C(=O)N[C@@H](CCC(N)=O)C(=O)N[C@H](C(=O)N[C@@H](Cc2ccc(OCCN)cc2)C(=O)N[C@@H](Cc2ccc3ccccc3c2)C(=O)NC2(C(=O)N[C@@H](CCCCNC(=O)C(C)(C)C)C(=O)N[C@@H](CC(N)=O)C(=O)NC3(C(N)=O)CCOCC3)CCOCC2)C(C)(C)SSC1(C)C [Compound 7, [Propionic_acid]-[(D)Arg]-[Pen]-Q-T-W-Q-[Pen]-Phe[4-(2-aminoethoxy)]-[2-Nal]-[THP]-[Lys(COtBu)]-N-[THP]-NH2]
Second: COc1ccc(C[C@H](NC(=O)[C@@H]2CSCC[C@H](NC(=O)[C@@H](CCCNC(=N)N)NC(=O)Cn3cc(CCCF)nn3)C(=O)N[C@@H](CCC(N)=O)C(=O)N[C@@H]([C@@H](C)O)C(=O)N[C@@H](Cc3c[nH]c4ccccc34)C(=O)N[C@@H](CCC(N)=O)C(=O)N2)C(=O)N[C@@H](Cc2ccc3ccccc3c2)C(=O)NC2(C(=O)N[C@@H](CCC(=O)O)C(=O)N[C@@H](CC(N)=O)C(=O)NC3(C(N)=O)CCOCC3)CCOCC2)cc1 [Compound 25, FPrpTriazoleMe_Acid-[(D)Arg]-[Abu]-Q-T-W-Q-[Cys]-[Phe(4-OMe)]-[2-Nal]-[THP]-E-N-[THP]-NH2]
The IC50 of the first is 2.4-fold lower: 8.6 nM for the first, 21 nM for the second.

First: CC(=O)N[C@H](CCCNC(=N)N)C(=O)N[C@H]1CCSC[C@@H](C(=O)N[C@@H](Cc2ccc(OCCN)cc2)C(=O)N[C@@H](Cc2ccc3ccccc3c2)C(=O)NC2(C(=O)N[C@@H](CCC(=O)O)C(=O)N[C@@H](CC(N)=O)C(=O)N[C@@H](Cc3ccccc3)C(N)=O)CCOCC2)NC(=O)[C@H](CCC(N)=O)NC(=O)[C@H](Cc2c[nH]c3ccccc23)NC(=O)[C@H]([C@@H](C)O)NC(=O)[C@H](CCC(N)=O)NC1=O [Compound 17, Ac-[(D)Arg]-[Abu]-Q-T-W-Q-[Cys]-Phe[4-(2-aminoethoxy)]-[2-Nal]-[THP]-E-N-F-NH2]
Second: CC(=O)N[C@H](CCCNC(=N)N)C(=O)N[C@H]1CCSC[C@@H](C(=O)N[C@@H](Cc2ccc(OCCN)cc2)C(=O)N[C@@H](Cc2ccc3ccccc3c2)C(=O)NC2(C(=O)N[C@@H](CCC(N)=O)C(=O)N[C@@H](CC(N)=O)C(=O)N[C@@](C)(Cc3ccccc3)C(N)=O)CCOCC2)NC(=O)[C@H](CCC(N)=O)NC(=O)[C@H](Cc2c[nH]c3ccccc23)NC(=O)[C@H]([C@@H](C)O)NC(=O)[C@H](CCC(N)=O)NC1=O [Compound 30, Ac-[(D)Arg]-[Abu]-Q-T-W-Q-[Cys]-Phe[4-(2-aminoethoxy)]-[2-Nal]-[THP]-Q-N-[a-MePhe]-NH2]
The IC50 of the first is 7.4-fold lower: 3.4 nM for the first, 25 nM for the second.
